Laboratory results published in publication PMC2861366 (Biochemistry, 2010).
Entries after “also recorded” stand apart in the source; their conditions may differ.

Legend:
[1] = system: χ subunit of DNA polymerase III holoenzyme; experiment: ITC binding to χ subunit; parameters: species or system E. coli; details: 25°C; for K, observed association equilibrium constant: buffer C (10 mM cacodylate, pH 7.0, 25% glycerol), 20 mM NaCl
PriA helicase = experiment: ITC binding to PriA helicase; parameters: species or system E. coli; details: 25°C; for binding detected by ITC (in words): 0.2 M NaCl, same protein and peptide concentrations as with WP9
[2] = system: χ subunit of DNA polymerase III holoenzyme; details: SSB prebound to ssDNA, low salt (5mM NaCl); cited from earlier work
[3] = buffer C, pH 7.0, 200 mM NaCl, WP9: averaged from two titrations
[4] = buffer T (10 mM Tris, pH 7.5, 10% glycerol), 20 mM NaCl
[5] = buffer C (10 mM cacodylate, pH 7.0, 25% glycerol), 20 mM NaCl

Row | Substance | K, observed association equilibrium constant [1] | K, observed association equilibrium constant (PriA helicase; [3]) | K, observed association equilibrium constant (PriA helicase; [4]) | binding detected by ITC (in words) ([1]; 0.2 M NaCl, buffer C) | binding detected by ITC (in words) (PriA helicase; buffer C) | K, observed association equilibrium constant (PriA helicase; [5]) | further results
1 | MDFDDDIPF [P9] | (1.6±0.4)×10^6 M^−1 | (1.8±0.6)×10^5 M^−1 | (2.0±0.3)×10^6 M^−1 | – | – | – | –
2 | SSB: E. coli single stranded DNA binding protein, homotetramer | – | – | – | – | – | – | affinity of χ for SSB in the presence of ssDNA [2]: (7.4±1.0)×10^6 M^−1; binding detected by ITC (in words) ([1]; 0.02 M NaCl): too weak to determine its binding parameters; also recorded: Weak (see text)
3 | WMDFDDDISF [WP9-113] | – | – | – | No binding can be detected | No binding can be detected | – | –
4 | WP9: modified P9 peptide containing a Trp residue on the N terminal side (WMDFDDDIPF) | (1.2±0.1)×10^6 M^−1 | (2.3±0.3)×10^5 M^−1 | – | – | – | (1.6±0.2)×10^6 M^−1 | –
5 | PSNEPPMDFDDDIPF [P15] | (1.5±0.2)×10^6 M^−1 | (3.6±0.2)×10^5 M^−1 | (1.6±0.4)×10^6 M^−1 | – | – | (2.7±0.2)×10^6 M^−1 | –
6 | WDFMDDPFID [WP9r] | – | – | – | No binding can be detected | No binding can be detected | – | –
